Where two headings read alike, the source gives them in different places.
Experiments:
Assay type in all cases: cell-based
Settings in all cases: single active, 7 days after inoculation
Pyrenophora teres = test: Microtest, activity against Pyrenophora teres
Leptosphaeria nodorum = test: Microtest, activity against wheat leaf spots caused by Leptosphaeria nodorum
Septoria tritici = test: Microtest, activity against leaf blotch on wheat caused by Septoria tritici
Rhizoctonia solani = test: Microtest, activity against Rhizoctonia solani
Pyricularia oryzae = system: Pyricularia oryzae
Microdochium nivale = test: Microtest, activity against Microdochium nivale

COC(=O)N(OC)c1ccccc1COc1ccn(-c2ccc(Cl)cc2)n1 [Pyraclostrobin]
Observed efficacy (Pyrenophora teres; 0.016 ppm): 34
Observed efficacy (Leptosphaeria nodorum; 0.25 ppm): 72

CN(C(=O)c1ccccc1)c1cccc(C(=O)Nc2c(Br)cc(C(F)(C(F)(F)F)C(F)(F)F)cc2C(F)(F)F)c1F [carboxamide compound of formula I]
Observed efficacy (Pyrenophora teres; 63 ppm): 20
Observed efficacy (Leptosphaeria nodorum; 4 ppm): 1
Observed efficacy (Septoria tritici; 63 ppm): 11

Fc1ccc([C@]2(Cn3cncn3)O[C@H]2c2ccccc2Cl)cc1 [Epoxiconazol]
Observed efficacy (Rhizoctonia solani; 0.001 ppm): 0
Observed efficacy (Rhizoctonia solani; 0.004 ppm): 0
Observed efficacy (Rhizoctonia solani; 0.016 ppm): 24
Observed efficacy (Pyricularia oryzae; 0.063 ppm): 1
Observed efficacy (Pyricularia oryzae; 0.25 ppm): 28
Observed efficacy (Pyrenophora teres; 0.016 ppm): 0
Observed efficacy (Microdochium nivale; 0.004 ppm): 8
Observed efficacy (Microdochium nivale; 0.016 ppm): 29
Observed efficacy (Septoria tritici; 0.016 ppm): 7

CC1(C)CCC(=Cc2ccc(Cl)cc2)C1(O)Cn1cncn1 (centres unmarked) [Triticonazol]
Observed efficacy (Septoria tritici; 0.063 ppm): 5

COCC(=O)N(c1c(C)cccc1C)C(C)C(=O)OC (centres unmarked) [Metalaxyl]
Observed efficacy (Septoria tritici; 1 ppm): 5
Observed efficacy (Septoria tritici; 4 ppm): 5

— US11882827B2, “Agricultural mixtures comprising carboxamide compound” (BASF AGROCHEMICAL PRODUCTS B.V., priority 2013, dated 2024)
